Earlier results as cited in patent US9045248B2 (priority 2007, dated 2015).

Molecular target: influenza virus RNP (Influenza A virus, UniProt P03428)
Conditions: cited from earlier work

Chain of influenza virus RNP (P03428 whole entry, looked up): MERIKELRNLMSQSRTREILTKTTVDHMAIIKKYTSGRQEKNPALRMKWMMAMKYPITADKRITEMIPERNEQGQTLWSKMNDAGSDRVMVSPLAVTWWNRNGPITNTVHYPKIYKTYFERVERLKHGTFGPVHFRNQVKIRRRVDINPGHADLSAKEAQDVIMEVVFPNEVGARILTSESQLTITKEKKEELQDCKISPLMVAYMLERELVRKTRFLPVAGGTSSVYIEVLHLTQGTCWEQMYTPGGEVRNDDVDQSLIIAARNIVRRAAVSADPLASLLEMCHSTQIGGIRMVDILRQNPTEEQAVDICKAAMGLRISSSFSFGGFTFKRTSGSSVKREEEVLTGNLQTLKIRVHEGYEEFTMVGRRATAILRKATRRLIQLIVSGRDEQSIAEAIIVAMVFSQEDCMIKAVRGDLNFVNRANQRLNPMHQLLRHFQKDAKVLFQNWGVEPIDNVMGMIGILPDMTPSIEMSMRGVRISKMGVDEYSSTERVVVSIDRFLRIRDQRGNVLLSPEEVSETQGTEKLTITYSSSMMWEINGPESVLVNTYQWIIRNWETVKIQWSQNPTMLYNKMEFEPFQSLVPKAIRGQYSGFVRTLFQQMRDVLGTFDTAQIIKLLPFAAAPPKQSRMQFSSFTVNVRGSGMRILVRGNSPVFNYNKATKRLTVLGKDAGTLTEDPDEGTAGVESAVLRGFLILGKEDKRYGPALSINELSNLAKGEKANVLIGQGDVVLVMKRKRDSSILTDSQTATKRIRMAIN

| SMILES | IC50 [µM] |
| --- | --- |
| Nc1nc2c(ncn2[C@@H]2O[C@H](COP(=O)(O)OP(=O)(O)OP(=O)(O)O)[C@@H](O)[C@H]2O)c(=O)[nH]1 [GTP] | 550 |
| C[n+]1cn([C@@H]2O[C@H](COP(=O)(O)OP(=O)(O)OP(=O)(O)O)[C@@H](O)[C@H]2O)c2nc(N)[nH]c(=O)c21 [m^7GTP, 7-methyl-guanosine triphosphate] | 113 |
